Assay results published in the NIST ThermoML archive (doi:10.1016/j.jct.2011.05.022).
Numbers after ± are expanded uncertainties.

Assay: molar heat capacity at constant pressure
Conditions: 101.33 kPa, Liquid, Small sample (50 mg) DSC

molar heat capacity at constant pressure (298.2 K) | molar heat capacity at constant pressure (323.2 K) | Compound
524 ± 53 J/K/mol | 554 ± 56 J/K/mol | CCCC[N+]1(C)CCCC1.N#C[B-](C#N)(C#N)C#N [1-butyl-1-methylpyrrolidinium tetracyanoborate]
495 ± 50 J/K/mol | 524 ± 53 J/K/mol | CCCC[n+]1cccc(C)c1.N#C[B-](C#N)(C#N)C#N [1-butyl-3-methylpyridinium tetracyanoborate]
